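Following 48 hours of exposure in 96-well plates, responses at five concentrations were used to interpolate endpoints linearly. GI50 marks 50% less growth. TGI denotes the concentration required for complete inhibition of growth.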
Experiments:
Experiment in all cases: inhibition of tumour cell growth, NCI panel, 48 h
SK-MEL-5 melanoma = tested on: SK-MEL-5 melanoma
MALME-3M melanoma = tested on: MALME-3M melanoma
PC-3 prostate = tested on: PC-3 prostate
EKVX NSCLC = tested on: EKVX NSCLC
NCI/ADR-RES ovarian = tested on: NCI/ADR-RES ovarian
A549 NSCLC = tested on: A549 NSCLC
HCT-116 colon = tested on: HCT-116 colon
BT-549 breast = tested on: BT-549 breast
HS 578T breast = tested on: HS 578T breast
SF-295 CNS = tested on: SF-295 CNS
ACHN renal = tested on: ACHN renal
LOX IMVI melanoma = tested on: LOX IMVI melanoma
NCI-H23 lung = tested on: NCI-H23 lung
HL-60(TB) leukemia = tested on: HL-60(TB) leukemia
NCI-H522 lung = tested on: NCI-H522 lung
MCF7 breast = tested on: MCF7 breast
HT29 colon = tested on: HT29 colon
SK-MEL-2 melanoma = tested on: SK-MEL-2 melanoma
NCI-H226 lung = tested on: NCI-H226 lung
SW-620 colon = tested on: SW-620 colon
SK-MEL-28 melanoma = tested on: SK-MEL-28 melanoma
SF-539 CNS = tested on: SF-539 CNS
A498 renal = tested on: A498 renal
NCI-H460 lung = tested on: NCI-H460 lung
UACC-62 melanoma = tested on: UACC-62 melanoma
OVCAR-8 ovarian = tested on: OVCAR-8 ovarian
MOLT-4 leukemia = tested on: MOLT-4 leukemia
KM12 colon = tested on: KM12 colon
M14 melanoma = tested on: M14 melanoma
CAKI-1 renal = tested on: CAKI-1 renal
SK-OV-3 ovarian = tested on: SK-OV-3 ovarian
SNB-19 CNS = tested on: SNB-19 CNS
UACC-257 melanoma = tested on: UACC-257 melanoma
RXF 393 renal = tested on: RXF 393 renal
CCRF-CEM leukemia = tested on: CCRF-CEM leukemia
SNB-75 CNS = tested on: SNB-75 CNS
T-47D breast = tested on: T-47D breast
TK-10 renal = tested on: TK-10 renal
MDA-MB-231 breast = tested on: MDA-MB-231 breast
RPMI-8226 leukemia = tested on: RPMI-8226 leukemia
OVCAR-4 ovarian = tested on: OVCAR-4 ovarian
UO-31 renal = tested on: UO-31 renal
OVCAR-3 ovarian = tested on: OVCAR-3 ovarian
SF-268 CNS = tested on: SF-268 CNS
HCT-15 colon = tested on: HCT-15 colon
OVCAR-5 ovarian = tested on: OVCAR-5 ovarian
HOP-92 NSCLC = tested on: HOP-92 NSCLC
786-0 renal = tested on: 786-0 renal
MDA-MB-435 = tested on: MDA-MB-435
DU-145 prostate = tested on: DU-145 prostate
HOP-62 NSCLC = tested on: HOP-62 NSCLC
IGROV1 ovarian = tested on: IGROV1 ovarian
COLO 205 colon = tested on: COLO 205 colon
HCC-2998 colon = tested on: HCC-2998 colon
SN12C renal = tested on: SN12C renal
U251 CNS = tested on: U251 CNS

SMILES: FC(F)(F)c1cc(Nc2cccc(Oc3ccc(NC4=NCCN4)nc3)c2)ccc1Cl
- GI50 (SK-MEL-5 melanoma): 1.8 µM
- TGI (SK-MEL-5 melanoma): 3.24 µM
- GI50 (MALME-3M melanoma): 2.81 µM
- TGI (MALME-3M melanoma): 9.7 µM
- GI50 (PC-3 prostate): 1.92 µM
- TGI (PC-3 prostate): 3.73 µM
- GI50 (EKVX NSCLC): 2.07 µM
- TGI (EKVX NSCLC): 5.45 µM
- GI50 (NCI/ADR-RES ovarian): 2.05 µM
- TGI (NCI/ADR-RES ovarian): 4.52 µM
- GI50 (A549 NSCLC): 2.35 µM
- TGI (A549 NSCLC): 6.31 µM
- GI50 (HCT-116 colon): 1.73 µM
- TGI (HCT-116 colon): 3.19 µM
- GI50 (BT-549 breast): 3.91 µM
- TGI (BT-549 breast): 16.9 µM
- GI50 (HS 578T breast): 1.98 µM
- TGI (HS 578T breast): 4.63 µM
- GI50 (SF-295 CNS): 1.73 µM
- TGI (SF-295 CNS): 3.37 µM
- GI50 (ACHN renal): 2.91 µM
- TGI (ACHN renal): 8.66 µM
- GI50 (LOX IMVI melanoma): 1.74 µM
- TGI (LOX IMVI melanoma): 3.19 µM
- GI50 (NCI-H23 lung): 2.53 µM
- TGI (NCI-H23 lung): 7.6 µM
- GI50 (HL-60(TB) leukemia): 2.11 µM
- TGI (HL-60(TB) leukemia): 5.53 µM
- GI50 (NCI-H522 lung): 1.93 µM
- TGI (NCI-H522 lung): 4.36 µM
- GI50 (MCF7 breast): 1.74 µM
- TGI (MCF7 breast): 3.69 µM
- GI50 (HT29 colon): 2.05 µM
- TGI (HT29 colon): 5.07 µM
- GI50 (SK-MEL-2 melanoma): 2.62 µM
- TGI (SK-MEL-2 melanoma): 6.99 µM
- GI50 (NCI-H226 lung): 2.06 µM
- TGI (NCI-H226 lung): 5.34 µM
- GI50 (SW-620 colon): 1.76 µM
- TGI (SW-620 colon): 3.65 µM
- GI50 (SK-MEL-28 melanoma): 1.94 µM
- TGI (SK-MEL-28 melanoma): 3.89 µM
- GI50 (SF-539 CNS): 2.07 µM
- TGI (SF-539 CNS): 4.57 µM
- GI50 (A498 renal): 2.31 µM
- TGI (A498 renal): 9.85 µM
- GI50 (NCI-H460 lung): 1.98 µM
- TGI (NCI-H460 lung): 3.95 µM
- GI50 (UACC-62 melanoma): 2.59 µM
- TGI (UACC-62 melanoma): 6.89 µM
- GI50 (OVCAR-8 ovarian): 2.49 µM
- TGI (OVCAR-8 ovarian): 6.73 µM
- GI50 (MOLT-4 leukemia): 3.2 µM
- TGI (MOLT-4 leukemia): 14.2 µM
- GI50 (KM12 colon): 2.02 µM
- TGI (KM12 colon): 4.47 µM
- GI50 (M14 melanoma): 1.73 µM
- TGI (M14 melanoma): 3.46 µM
- GI50 (CAKI-1 renal): 2.76 µM
- TGI (CAKI-1 renal): 11.3 µM
- GI50 (SK-OV-3 ovarian): 14.8 µM
- TGI (SK-OV-3 ovarian): 32 µM
- GI50 (SNB-19 CNS): 2.74 µM
- TGI (SNB-19 CNS): 8.64 µM
- GI50 (UACC-257 melanoma): 3.09 µM
- TGI (UACC-257 melanoma): 9.59 µM
- GI50 (RXF 393 renal): 2.05 µM
- TGI (RXF 393 renal): 4.94 µM
- GI50 (CCRF-CEM leukemia): 2.8 µM
- TGI (CCRF-CEM leukemia): 14.6 µM
- GI50 (SNB-75 CNS): 1.96 µM
- TGI (SNB-75 CNS): 8.29 µM
- GI50 (T-47D breast): 2.79 µM
- TGI (T-47D breast): 11.3 µM
- GI50 (TK-10 renal): 3.97 µM
- TGI (TK-10 renal): 16.1 µM
- GI50 (MDA-MB-231 breast): 2.18 µM
- TGI (MDA-MB-231 breast): 5.02 µM
- GI50 (RPMI-8226 leukemia): 2.03 µM
- TGI (RPMI-8226 leukemia): 5.24 µM
- GI50 (OVCAR-4 ovarian): 2.75 µM
- TGI (OVCAR-4 ovarian): 11 µM
- GI50 (UO-31 renal): 2.19 µM
- TGI (UO-31 renal): 8.61 µM
- GI50 (OVCAR-3 ovarian): 2.5 µM
- TGI (OVCAR-3 ovarian): 6.33 µM
- GI50 (SF-268 CNS): 4.14 µM
- TGI (SF-268 CNS): 17.9 µM
- GI50 (HCT-15 colon): 1.66 µM
- TGI (HCT-15 colon): 3.32 µM
- GI50 (OVCAR-5 ovarian): 2.49 µM
- TGI (OVCAR-5 ovarian): 6.81 µM
- GI50 (HOP-92 NSCLC): 1.42 µM
- TGI (HOP-92 NSCLC): 5.29 µM
- GI50 (786-0 renal): 1.76 µM
- TGI (786-0 renal): 3.58 µM
- GI50 (MDA-MB-435): 1.66 µM
- TGI (MDA-MB-435): 3.3 µM
- GI50 (DU-145 prostate): 2.09 µM
- TGI (DU-145 prostate): 4.44 µM
- GI50 (HOP-62 NSCLC): 2.22 µM
- TGI (HOP-62 NSCLC): 6.1 µM
- GI50 (IGROV1 ovarian): 1.83 µM
- TGI (IGROV1 ovarian): 4.22 µM
- GI50 (COLO 205 colon): 1.87 µM
- TGI (COLO 205 colon): 3.96 µM
- GI50 (HCC-2998 colon): 1.98 µM
- TGI (HCC-2998 colon): 3.65 µM
- GI50 (SN12C renal): 1.87 µM
- TGI (SN12C renal): 3.82 µM
- GI50 (U251 CNS): 2.09 µM
- TGI (U251 CNS): 4.75 µM

— PubChem BioAssay (NCI)
